ChEMBL document CHEMBL4312023, “Design of novel monoamine oxidase-B inhibitors based on piperine scaffold: Structure-activity-toxicity, drug-likeness and efflux transport studies” (Eur J Med Chem, 2020)
Active and inactive are the calls of the source. The calls are words filed in the database; no cut-off is given here.

Assays:
[1] = Chromatographic hydrophobicity index of compound at 250 uM at pH 7.4 by HPLC analysis; type: ADME; conditions: pH 7.4, 250 µM
[2] = target: T1, Amine oxidase [flavin-containing] B (Homo sapiens, UniProt P27338); test: Competitive inhibition of human microsomal MAO-B expressed in baculovirus infected BTI-TN-5B1-4 cells assessed as increase in substrate Km using kynuramine as substrate preincubated with substrate at varying concentrations for 10 mins followed by enzyme addition by Lineweaver-Burk plot analysis
T1 sequence (P27338 whole entry): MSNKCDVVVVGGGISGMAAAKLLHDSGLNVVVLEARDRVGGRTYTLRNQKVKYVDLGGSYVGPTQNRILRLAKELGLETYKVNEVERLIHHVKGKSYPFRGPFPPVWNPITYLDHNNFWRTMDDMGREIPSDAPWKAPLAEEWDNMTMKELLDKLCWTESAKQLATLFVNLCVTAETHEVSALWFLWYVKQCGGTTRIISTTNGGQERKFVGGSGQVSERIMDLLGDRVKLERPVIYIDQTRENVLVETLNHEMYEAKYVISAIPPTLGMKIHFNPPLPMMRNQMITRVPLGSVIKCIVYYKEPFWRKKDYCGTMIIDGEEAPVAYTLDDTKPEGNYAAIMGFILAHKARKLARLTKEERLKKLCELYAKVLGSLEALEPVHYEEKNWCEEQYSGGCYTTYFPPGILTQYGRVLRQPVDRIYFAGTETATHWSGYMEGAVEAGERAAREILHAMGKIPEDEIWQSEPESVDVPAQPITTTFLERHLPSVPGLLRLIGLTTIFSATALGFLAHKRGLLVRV

[3] = Retention time of compound at pH 7.4 by LC-UV analysis; type: physicochemical; conditions: buffer
[4] = target: T1, Amine oxidase [flavin-containing] B; test: Reversible inhibition of human microsomal MAO-B expressed in baculovirus infected BTI-TN-5B1-4 cells assessed as 4-hydroxyquinoline formation using kynuramine as substrate incubated up to 140 mins by spectrophotometric analysis; conditions: bti-tn-5b1-4, 140 min
[5] = (§1) Cytotoxicity against human SH-SY5Y cells assessed as cellular metabolic activity by measuring resazurin reduction at 10 to 50 uM incubated for 24 hrs followed by incubation with resazurin for 2 hrs by fluorescence based assay (reference value: >85%); type: ADME, cell-based; conditions: SH-SY5Y cells, read-out: Activity
[6] = target: T1, Amine oxidase [flavin-containing] B; test: biochemical; type: cell-based, BTI-TN-5B1-4
Description: Inhibition of human microsomal MAO-B expressed in baculovirus infected BTI-TN-5B1-4 cells assessed as reduction in 4-hydroxyquinoline formation using kynuramine as substrate preincubated with substrate for 10 mins followed by enzyme addition by spectrophotometric analysis

[7] = target: T1, Amine oxidase [flavin-containing] B; test: Competitive inhibition of human microsomal MAO-B expressed in baculovirus infected BTI-TN-5B1-4 cells assessed as inhibition constant using kynuramine as substrate preincubated with substrate at varying concentrations for 10 mins followed by enzyme addition by Lineweaver-Burk plot analysis
[8] = Stability of compound in DMSO-d6 and D2O (7:3) measured after 30 mins to 1 hr in presence of glutathione by thiol trapping assay based 1H-NMR analysis; type: physicochemical
[9] = target: T2, ATP-dependent translocase ABCB1 (Homo sapiens, UniProt P08183); test: (§2) Inhibition of P-gp in human Caco2 cells assessed as decrease in Rho123 efflux by measuring decrease in ratio between fluorescence intensity of Zos-inhibited Rho123 accumulation and fluorescence intensity of non-inhibited Rho123 accumulation at 10 uM using Rho123 as substrate preincubated for 30 mins in presence of 5 uM P-gp inhibitor, Zos followed by incubation with Rhodamine 123 for 90 mins by fluorescence spectroscopy analysis; type: cell-based; conditions: 1.5 h
T2 sequence (P08183 whole entry): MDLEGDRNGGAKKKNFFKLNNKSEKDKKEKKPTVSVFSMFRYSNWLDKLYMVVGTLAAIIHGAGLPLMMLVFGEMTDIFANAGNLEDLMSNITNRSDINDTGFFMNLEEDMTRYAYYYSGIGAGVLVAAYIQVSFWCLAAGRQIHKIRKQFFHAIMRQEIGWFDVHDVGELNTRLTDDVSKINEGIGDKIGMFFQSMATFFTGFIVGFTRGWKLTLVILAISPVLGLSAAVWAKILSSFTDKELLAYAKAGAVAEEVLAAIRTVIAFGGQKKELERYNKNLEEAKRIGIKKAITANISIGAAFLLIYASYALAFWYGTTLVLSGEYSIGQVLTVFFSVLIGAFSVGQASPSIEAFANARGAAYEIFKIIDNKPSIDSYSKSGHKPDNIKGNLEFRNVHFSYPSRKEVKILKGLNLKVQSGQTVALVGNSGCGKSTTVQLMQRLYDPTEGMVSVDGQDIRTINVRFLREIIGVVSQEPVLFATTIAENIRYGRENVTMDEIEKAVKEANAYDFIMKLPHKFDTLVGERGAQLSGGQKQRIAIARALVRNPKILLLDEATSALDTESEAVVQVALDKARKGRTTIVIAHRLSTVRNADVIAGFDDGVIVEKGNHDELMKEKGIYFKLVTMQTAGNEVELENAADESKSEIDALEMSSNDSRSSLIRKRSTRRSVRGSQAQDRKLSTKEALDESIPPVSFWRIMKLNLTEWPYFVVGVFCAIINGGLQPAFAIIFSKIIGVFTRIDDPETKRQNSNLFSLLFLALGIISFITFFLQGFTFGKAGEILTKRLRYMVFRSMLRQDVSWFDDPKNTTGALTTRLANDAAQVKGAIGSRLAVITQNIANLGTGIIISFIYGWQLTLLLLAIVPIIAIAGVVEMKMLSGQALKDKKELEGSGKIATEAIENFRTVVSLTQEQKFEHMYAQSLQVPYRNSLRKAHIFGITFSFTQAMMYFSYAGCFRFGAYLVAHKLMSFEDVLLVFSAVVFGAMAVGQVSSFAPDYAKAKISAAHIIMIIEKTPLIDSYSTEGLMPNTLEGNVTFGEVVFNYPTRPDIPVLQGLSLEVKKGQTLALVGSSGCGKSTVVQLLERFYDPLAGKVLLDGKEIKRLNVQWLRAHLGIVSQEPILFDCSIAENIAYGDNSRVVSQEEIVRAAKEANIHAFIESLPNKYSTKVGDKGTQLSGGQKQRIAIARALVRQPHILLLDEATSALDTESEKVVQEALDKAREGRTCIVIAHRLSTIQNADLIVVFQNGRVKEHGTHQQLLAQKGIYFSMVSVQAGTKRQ

[10] = Cytotoxicity against human Caco2 cells assessed as cellular metabolic activity by measuring resazurin reduction at 10 to 50 uM incubated for 24 hrs followed by incubation with resazurin for 1 hr by fluorescence based assay (reference value: >85%); type: ADME, cell-based; conditions: Caco-2 cells, read-out: Activity
[11] = target: T1, Amine oxidase [flavin-containing] B; test: Competitive inhibition of human microsomal MAO-B expressed in baculovirus infected BTI-TN-5B1-4 cells assessed as constant Vmax using kynuramine as substrate preincubated with substrate at varying concentrations for 10 mins followed by enzyme addition by Lineweaver-Burk plot analysis
Homo sapiens = species on record: Homo sapiens; test: Selectivity index, ratio of IC50 for human microsomal MAO-A expressed in baculovirus infected […] cells to IC50 for human microsomal MAO-B expressed in baculovirus infected […] cells using kynuramine as substrate
[12] = Cytotoxicity against human Caco2 cells assessed as lysosomal activity by measuring neutral red uptake at 10 to 50 uM incubated for 24 hrs followed by incubation with neutral red solution for 1 hr by microplate reader analysis (reference value: >85%); type: cell-based; conditions: Caco-2 cells, read-out: Activity
[13] = Chromatographic hydrophobicity index, log D of compound at 250 uM at pH 7.4 by HPLC analysis; type: physicochemical; conditions: buffer
[14] = (§3) Cytotoxicity against human SH-SY5Y cells assessed as lysosomal activity by measuring neutral red uptake at 10 to 50 uM incubated for 24 hrs followed by incubation with neutral red solution for 2 hrs by microplate reader analysis (reference value: >85%); type: cell-based; conditions: SH-SY5Y cells, read-out: Activity
[15] = target: T3, Amine oxidase [flavin-containing] A (Homo sapiens, UniProt P21397); conditions: BTI-TN-5B1-4, human, read-out: INH
T3 sequence (P21397 whole entry): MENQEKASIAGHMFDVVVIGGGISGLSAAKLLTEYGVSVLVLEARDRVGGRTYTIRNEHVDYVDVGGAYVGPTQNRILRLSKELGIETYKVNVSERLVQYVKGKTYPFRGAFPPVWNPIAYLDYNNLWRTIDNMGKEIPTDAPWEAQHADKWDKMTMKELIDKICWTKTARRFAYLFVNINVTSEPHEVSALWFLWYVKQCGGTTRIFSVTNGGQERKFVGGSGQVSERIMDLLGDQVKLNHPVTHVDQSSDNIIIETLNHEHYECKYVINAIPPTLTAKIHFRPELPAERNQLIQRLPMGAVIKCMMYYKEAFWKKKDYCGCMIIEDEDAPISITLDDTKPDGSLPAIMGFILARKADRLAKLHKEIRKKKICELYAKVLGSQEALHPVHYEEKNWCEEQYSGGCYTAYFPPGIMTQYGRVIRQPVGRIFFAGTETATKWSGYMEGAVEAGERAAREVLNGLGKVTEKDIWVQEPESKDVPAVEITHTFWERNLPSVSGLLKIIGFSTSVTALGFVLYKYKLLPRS
Description: Inhibition of human microsomal MAO-A expressed in baculovirus infected BTI-TN-5B1-4 cells assessed as reduction in 4-hydroxyquinoline formation at 10 uM using kynuramine as substrate preincubated with substrate for 10 mins followed by enzyme inhibition by spectrophotometric analysis

[16] = target: T2, ATP-dependent translocase ABCB1; test: as §2, with “Induction of” for “Inhibition of”, “Rho123 intracellular accumulation” for “Rho123 efflux”, “measuring increase” for “measuring decrease”; type: cell-based; conditions: 1.5 h
[17] = target: T3, Amine oxidase [flavin-containing] A; test: biochemical
Description: Inhibition of human microsomal MAO-A expressed in baculovirus infected BTI-TN-5B1-4 cells assessed as reduction in 4-hydroxyquinoline formation using kynuramine as substrate preincubated with substrate for 10 mins followed by enzyme addition by spectrophotometric analysis

[18] = target: T1, Amine oxidase [flavin-containing] B; test: Inhibition of human microsomal MAO-B expressed in baculovirus infected BTI-TN-5B1-4 cells assessed as reduction in 4-hydroxyquinoline formation at 10 uM using kynuramine as substrate preincubated with substrate for 10 mins followed by enzyme addition by spectrophotometric analysis; conditions: BTI-TN-5B1-4, human
SH-SY5Y [19] = test: as §1; type: ADME, cell-based; conditions: sh-sy5y, 24 h, 50 µM
SH-SY5Y [20] = test: as §3; type: cell-based; conditions: sh-sy5y, 24 h, 50 µM
[21] = Solubility of compound in sodium phosphate buffer at >10 uM at pH 7.4; type: physicochemical
[22] = Cytotoxicity against human SH-SY5Y cells assessed as cellular metabolic activity by measuring resazurin reduction at 50 uM incubated for 24 hrs followed by incubation with resazurin for 2 hrs by fluorescence based assay (reference value: >85 %); type: ADME, cell-based; conditions: read-out: Activity
[23] = Cytotoxicity against human SH-SY5Y cells assessed as lysosomal activity by measuring neutral red uptake at 50 uM incubated for 24 hrs followed by incubation with neutral red solution for 2 hrs by microplate reader analysis (reference value: >85%); type: cell-based; conditions: read-out: Activity
SH-SY5Y [24] = test: Induction of intracellular oxidative stress in human SH-SY5Y cells assessed as increase in reactive species level at 10 to 50 uM pretreated with DCFH-DA for 1.5 hrs followed by incubation with compound for 24 hrs by DCFH-DA dye based fluorescence assay relative to control; type: cell-based
Caco-2 = test: Effect on P-gp protein expression in human Caco-2 cells at 10 uM incubated for 30 mins; type: functional, cell-based

Compound | CHI [1] | Retention_time [3] | IC50 [6] | Ratio IC50 (Homo sapiens) | inhibition at 10 µM [15] | other results
N#C/C(=C\C=C\c1ccc2c(c1)OCO2)C(=O)OCc1ccccc1 | 96.73 | 12.11 min | 47.4 nM | > 211 | < 50% | inhibition (INH) [2]: Active; inhibition (INH) [4]: Active; viability at 24 h, up to 50 µM [5]: > 85%; Ki [7]: 44.1 nM; Stability [8]: Stable; inhibition (INH) [9]: Active; viability at 24 h, up to 50 µM [10]: > 85%; inhibition (INH) [11]: Active; viability at 24 h [12]: > 85%; chromatographic logD at 250 µM [13]: 3.61; viability at 24 h [14]: > 85%
O=C(/C=C/C=C/c1ccc2c(c1)OCO2)OCc1ccccc1 | 102.14 | 12.46 min | 167 nM | 25 |  | inhibition (INH) [2]: Active; Activity [16]: Not Active; viability at 24 h, up to 50 µM [5]: > 85%; IC50 [17]: 4240 nM; Ki [7]: 75 nM; inhibition (INH) [9]: Not Active; viability at 24 h, up to 50 µM [10]: > 85%; inhibition (INH) [11]: Active; viability at 24 h [12]: > 85%; chromatographic logD at 250 µM [13]: 3.9; viability at 24 h [14]: > 85%
O=C(/C=C/C=C/c1ccc2c(c1)OCO2)OCCc1ccccc1 |  |  | 448 nM | > 22 | < 50% | 
N#C/C(=C\C=C\c1ccc2c(c1)OCO2)C(=O)Oc1ccccc1 |  |  | 215 nM | > 47 | < 50% | 
N#C/C(=C\C=C\c1ccc2c(c1)OCO2)C(=O)NCc1ccccc1 |  |  | 471 nM | > 21 | < 50% | 
O=C(O)/C=C/C=C/c1ccc2c(c1)OCO2 [PIPERIC ACID] |  |  |  |  | < 50% | inhibition at 10 µM [18]: < 50%
CCCCCCC(=O)c1ccccc1 | 111.8 | 13.67 min |  |  |  | 
NC(=O)N1c2ccccc2C=Cc2ccccc21 [CARBAMAZEPINE] | 58.45 | 9.3 min |  |  |  | 
C[C@H](NCc1ccc(OCc2cccc(F)c2)cc1)C(N)=O [SAFINAMIDE] |  |  |  |  |  | inhibition (INH) [4]: Active
c1ccc2[nH]ccc2c1 [INDOLE] | 69.15 | 10.27 min |  |  |  | 
CCCCC(=O)c1ccccc1 [VALEROPHENONE] | 97.67 | 12.04 min |  |  |  | 
O=C(/C=C/C=C/c1ccc2c(c1)OCO2)Nc1ccccc1 |  |  |  |  | < 50% | inhibition at 10 µM [18]: < 50%
O=C(/C=C/C=C/c1ccc2c(c1)OCO2)NCCc1ccccc1 |  |  |  |  | < 50% | inhibition at 10 µM [18]: < 50%
Cn1c(=O)c2c(ncn2C)n(C)c1=O [CAFFEINE] | 24.12 | 7.56 min |  |  |  | 
c1ccc2[nH]cnc2c1 [BENZIMIDAZOLE] | 30.71 | 8 min |  |  |  | 
COc1cc2c(c(OC)c1OC)-c1ccc(OC)c(=O)cc1[C@@H](NC(C)=O)CC2 [COLCHICINE] | 44.32 | 8.35 min |  |  |  | 
N#C/C(=C\C=C\c1ccc2c(c1)OCO2)C(=O)NCCc1ccccc1 |  |  |  |  | < 50% | inhibition at 10 µM [18]: < 50%
Cn1c(=O)c2[nH]cnc2n(C)c1=O.O [THEOPHYLLINE] | 18.19 | 7.31 min |  |  |  | 
O=C(/C=C/C=C/c1ccc2c(c1)OCO2)N1CCCCC1 [PIPERINE] | 73.45 | 10.61 min | 1050 nM | 10 | < 50% | Activity [16]: Not Active; Activity (SH-SY5Y [19]): Non-Toxic; inhibition (INH) [9]: Not Active; chromatographic logD at 250 µM [13]: 2.39; Activity (SH-SY5Y [20]): Non-Toxic
N#C/C(=C\C=C\c1ccc2c(c1)OCO2)C(=O)OCCc1ccccc1 | 100.75 | 12.37 min | 99.2 nM | > 101 | < 50% | viability at 24 h, up to 50 µM [5]: > 85%; inhibition (INH) [9]: Active; viability at 24 h, up to 50 µM [10]: > 85%; viability at 24 h [12]: > 85%; chromatographic logD at 250 µM [13]: 3.82; viability at 24 h [14]: > 85%
O=C(/C=C/C=C/c1ccc2c(c1)OCO2)NCc1ccccc1 |  |  |  |  | < 50% | inhibition at 10 µM [18]: < 50%
O=C(/C=C/C=C/c1ccc2c(c1)OCO2)Oc1ccccc1 |  |  | 156 nM | > 64 |  | solubility [21]: Insoluble; viability at 24 h, 50 µM [22]: 79.7%; viability at 24 h, 50 µM [23]: 59.4%
CCCC(=O)c1ccccc1 [BUTYROPHENONE] | 88.49 | 11.32 min |  |  |  | 
N#C/C(=C\C=C\c1ccc2c(c1)OCO2)C(=O)Nc1ccccc1 |  |  |  |  | < 50% | inhibition at 10 µM [18]: < 50%
N#C/C(=C\C=C\c1ccc2c(c1)OCO2)C(=O)O |  |  |  |  | < 50% | inhibition at 10 µM [18]: < 50%
N#C/C(=C\C=C\c1ccc2c(c1)OCO2)C(=O)N1CCCCC1 |  |  | 143 nM | > 70 | < 50% | inhibition (INH) [2]: Active; Activity [16]: Not Active; viability at 24 h, up to 50 µM [5]: > 85%; Ki [7]: 20.6 nM; Activity (SH-SY5Y [24]): 111.1%; viability at 24 h, up to 50 µM [10]: > 85%; inhibition (INH) [11]: Active; viability at 24 h [12]: > 85%; viability at 24 h [14]: > 85%; Activity (Caco-2): inactive
CC(=O)Nc1ccc(O)cc1 [ACETAMINOPHEN] | 20.59 | 7.45 min |  |  |  | 
CCC(=O)c1ccccc1 [PROPIOPHENONE] | 78.41 | 10.63 min |  |  |  | 
